From patent publication US4708871A, “Antigenically active amino acid sequences” (priority 1983, dated 1987) come the findings set out here.

Entries after “also recorded” stand apart in the source; their conditions may differ. No end group written: not given here.

What all share (type): binding, rabbit
Assay [1] deals with anti-VP1, type O1 antiserum.
The subject of assay [2] is anti-intact virus particle, type C1 antiserum.
Assay [3] concerns anti-intact virus particle, type O1 antisera.
Assay [4] concerns anti-virus-subunit, type O1 antiserum.

With DLQVLA [compound 147], in assay [1], the “Activity with another anti-VP1 serum (ELISA)” value is on record as “showed nothing” and the “Reactive antibody in anti-VP1 sera (ELISA)” value is given as “only weakly present”. Also, in assay [2], the “Reaction with antiserum to type C1 (ELISA)” value was “did not react at all”. Further, in assay [3], the “Change of activity, absorbed compared to non-absorbed serum” value was “loss of activity”; the “Reactive antibody in anti-intact virus serum after absorption with purified virus (ELISA)” value is listed as “absent”; the “Reactive antibody in whole anti-intact virus sera (ELISA)” value is reported as “present; also recorded: reacted”. Further, in assay [4], the “Reactive antibody in anti-subunit sera (ELISA)” value was “not observed”.
As to GDLQVL [GDLQVL], in assay [1], the “Activity with another anti-VP1 serum (ELISA)” value is listed as “showed nothing” and the “Reactive antibody in anti-VP1 sera (ELISA)” value is reported as “only weakly present”. Also, the “Reaction with antiserum to type C1 (ELISA)” value in assay [2] is listed as “did not react at all”. In addition, in assay [3], the “Change of activity, absorbed compared to non-absorbed serum” value is on record as “loss of activity”; the “Reactive antibody in anti-intact virus serum after absorption with purified virus (ELISA)” value was “absent”; the “Reactive antibody in whole anti-intact virus sera (ELISA)” value is “present; also recorded: reacted”. The “Reactive antibody in anti-subunit sera (ELISA)” value in assay [4] is “not observed”.
